Series [1] relates to CD1 mice. The settings on record: known anxiolytic drug, background of the test; cited from earlier work.
Series [2] concerns CD1 mice. In words: Mouse elevated-plus maze (conflict test, anxiolytic activity). It is filed as in vivo. As to the method: FIG. 1A is a graph of time mice spend in the open arms of the elevated-plusmaze (a conflict test that probes anxiolytic activity) as a function of the dose of (-)nicotine administered to the mice.
FIG. 1B is a graph of time mice spend in the open arms of the elevated-plusmaze as a function of the administration of (+)2-methylpiperidine (0.1 mg/kg) or (-)nicotine administered separately or in combination.
The mouse elevated-plus maze is a conflict test that probes anxiolytic activity (Lister, Pyschopharmacology, 1987, 92:180). It is based on the fact that exposure of mice to an elevated open arm leads to an avoidance response considerably stronger than that evoked by exposure to an enclosed arm.
The apparatus required to perform this test is made of plexiglass and consists of two open arms (17×8 cm) and two enclosed arms (17×8×15 cm) extending from a central platform (8×8 cm). It is mounted on an opaque plexiglass base rising 39 cm above the floor. Mice are released on one of the open arms and the time spent in the open and enclosed arms is recorded during a 5 min. test period.
CD1 mice (n=8 per group) received systemic (-)nicotine injections (0, 0.03, 0.1 or 0.3 mg/kg, IP) fifteen minutes before they were allowed to explore the plus-maze for a 5 minute test period.

For a further series, the system named is male CD1 mice. In words: Acute lethality in mice within 24 hours. It is filed as in vivo, mouse. The settings on record: (-)nicotine 9.0 mg/kg. The text has this:
Compounds were given as the respective mandelic acid salts.

The nature of series [3]: (-)Nicotine induced mouse lethality after pretreatment. It is filed as in vivo. The settings on record: mouse, in vivo, ip; saline pretreatment; read-out: LD50 [95% C.I.] of (-)nicotine.
A further series has as its system mouse. Described as above. It is filed as in vivo. The settings on record: saline pretreatment.
Series [4] is described as follows: Combined effects of (-)nicotine and (+)2-methylpiperidine on rectal temperatures of mice. It is filed as in vivo, mouse. The settings on record: for Rectal temperature: saline pretreatment, * p<0.05 vs saline (38.3 ± 0.1), mean ± S.E.M.

The text below walks through data of patent publication US5272155A, “(+)-2-methylpiperidine as modulator of cholinergic systems” (Abbott Laboratories, priority 1991, dated 1993).

For the compound `CN1C(=O)CN=C(c2ccccc2)c2cc(Cl)ccc21` [diazepam], the “time spent in open arms, known anxiolytic drugs” value with CD1 mice [1] is listed as “increased in a dose-related way”.

With `CN1CCCC1c1cccnc1` (single isomer, unassigned; (-)) [(-)nicotine, reference compound], in the series with CD1 mice [2] ((-)nicotine 0.1 and 0.3 mg/kg, IP, 15 min before test, p<0.05 vs saline, n=8), the “time spent in the open arms (anxiolytic effect)” value was “significant increase in the time spent by the mice in the open arms”. Also, the “anxiolytic activity of the low (-)nicotine dose given alone” value in the series with CD1 mice [2] ((-)nicotine dose used in the combination of FIG. 1B) is “non-effective”. The death of animals with male CD1 mice was 4 out of 6. Further, the signs of cholinostimulation entry in the series on male CD1 mice was “dyspnea and decreased activity”. Further, the 50% lethal dose (LD50) in series [3] was found to be 7.7 mg/kg. Also, the DEATHS/24 hours is 0/6 in the series with mouse ((-)nicotine 3 mg/kg), 2/8 in the series on mouse ((-)nicotine 6 mg/kg) and 4/6 in the series with mouse ((-)nicotine 9 mg/kg). Besides, the effect on temperature result in series [4] ((-)nicotine 0.3 and 1.0 mg/kg, i.p.) is “significantly lowered temperature”. Besides, the Rectal temperature in series [4] ((-)nicotine 0.3 mg/kg) stood at 36.9 ± 0.2 °C; in series [4] ((-)nicotine 1.0 mg/kg), 36.5 ± 0.6 °C.
